Assay results from paper PMC9116245, “New 1,2,3-triazole linked ciprofloxacin-chalcones induce DNA damage by inhibiting human topoisomerase I& II and tubulin polymerization” (Journal of Enzyme Inhibition and Medicinal Chemistry, 2022).

Legend:
RPMI-8226 = assay: NCI one-dose screen; type: cell-based, human; conditions: Homo sapiens; RPMI-8226, 10 µM; read-out: Growth Percent
How it was run: (§1)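 Human cancer cell lines (59, nine subpanels) were exposed to compound at 10 µM only. Growth percent, NCI-60 standard method.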

HCT-116 = assay: NCI one-dose screen; type: cell-based, human; conditions: Homo sapiens; HCT-116, 10 µM; read-out: Growth Percent
How it was run: as §1

HT-29 = assay: MTT assay; type: cell-based; conditions: Homo sapiens; HT-29, MTT assay, 24 h incubation
How it was run: (§2)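 Colorectal lines treated with 1, 5, 10, 20, 40, 80 or 100 µM compound, or DMSO vehicle. Proliferation read by MTT reduction.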

Caco-2 = assay: MTT assay; type: cell-based; conditions: Homo sapiens; Caco-2, MTT assay, 24 h incubation
How it was run: as §2

HCT116 = assay: MTT assay; type: cell-based; conditions: Homo sapiens, HCT-116, 24 h incubation
How it was run: as §2

SW-620 = assay: NCI one-dose screen; type: cell-based; conditions: Homo sapiens; SW-620, 10 µM; read-out: Growth Percent
How it was run: as §1

MCF7 = assay: NCI one-dose screen; type: cell-based; conditions: Homo sapiens; MCF7, 10 µM; read-out: Growth Percent
How it was run: as §1

SF-539 = assay: NCI one-dose screen; type: cell-based; conditions: Homo sapiens; SF-539, 10 µM; read-out: Growth Percent
How it was run: as §1

HT29 = assay: NCI one-dose screen; type: cell-based; conditions: Homo sapiens, HT-29; HT29, 10 µM; read-out: Growth Percent
How it was run: as §1

HOP-62 = assay: NCI one-dose screen; type: cell-based; conditions: Homo sapiens; HOP-62, 10 µM; read-out: Growth Percent
How it was run: as §1

MOLT-4 = assay: NCI one-dose screen; type: cell-based; conditions: Homo sapiens; MOLT-4, 10 µM; read-out: Growth Percent
How it was run: as §1

A498 = assay: NCI one-dose screen; type: cell-based; conditions: Homo sapiens; A498, 10 µM; read-out: Growth Percent
How it was run: as §1

OVCAR-8 = assay: NCI one-dose screen; type: cell-based; conditions: Homo sapiens; OVCAR-8, 10 µM; read-out: Growth Percent
How it was run: as §1

CAKI-1 = assay: NCI one-dose screen; type: cell-based; conditions: Homo sapiens; CAKI-1, 10 µM; read-out: Growth Percent
How it was run: as §1

DU-145 = assay: NCI one-dose screen; type: cell-based; conditions: Homo sapiens; DU-145, 10 µM; read-out: Growth Percent
How it was run: as §1

OVCAR-4 = assay: NCI one-dose screen; type: cell-based; conditions: Homo sapiens; OVCAR-4, 10 µM; read-out: Growth Percent
How it was run: as §1

SR = assay: NCI one-dose screen; type: cell-based; conditions: Homo sapiens, read-out: Growth Percent
How it was run: as §1

ACHN = assay: NCI one-dose screen; type: cell-based; conditions: Homo sapiens, read-out: Growth Percent
How it was run: as §1

OVCAR-3 = assay: NCI one-dose screen; type: cell-based; conditions: Homo sapiens; OVCAR-3, 10 µM; read-out: Growth Percent
How it was run: as §1

SN12C = assay: NCI one-dose screen; type: cell-based; conditions: Homo sapiens, read-out: Growth Percent
How it was run: as §1

LOX IMVI = assay: NCI one-dose screen; type: cell-based; conditions: Homo sapiens, read-out: Growth Percent
How it was run: as §1

SNB-75 = assay: NCI one-dose screen; type: cell-based; conditions: Homo sapiens; SNB-75, 10 µM; read-out: Growth Percent
How it was run: as §1

KM12 = assay: NCI one-dose screen; type: cell-based; conditions: Homo sapiens; KM12, 10 µM; read-out: Growth Percent
How it was run: as §1

TK-10 = assay: NCI one-dose screen; type: cell-based; conditions: Homo sapiens; TK-10, 10 µM; read-out: Growth Percent
How it was run: as §1

HL-60(TB) = assay: NCI one-dose screen; type: cell-based; conditions: Homo sapiens, read-out: Growth Percent
SF-295 = assay: NCI one-dose screen; type: cell-based; conditions: Homo sapiens; SF-295, 10 µM; read-out: Growth Percent
How it was run: as §1

UACC-257 = assay: NCI one-dose screen; type: cell-based; conditions: Homo sapiens; UACC-257, 10 µM; read-out: Growth Percent
How it was run: as §1

SK-OV-3 = assay: NCI one-dose screen; type: cell-based; conditions: Homo sapiens; SK-OV-3, 10 µM; read-out: Growth Percent
How it was run: as §1

HOP-92 = assay: NCI one-dose screen; type: cell-based; conditions: Homo sapiens; HOP-92, 10 µM; read-out: Growth Percent
How it was run: as §1

SK-MEL-5 = assay: NCI one-dose screen; type: cell-based; conditions: Homo sapiens; SK-MEL-5, 10 µM; read-out: Growth Percent
How it was run: as §1

SNB-19 = assay: NCI one-dose screen; type: cell-based; conditions: Homo sapiens; SNB-19, 10 µM; read-out: Growth Percent
How it was run: as §1

RXF 393 = assay: NCI one-dose screen; type: cell-based; conditions: Homo sapiens; RXF 393, 10 µM; read-out: Growth Percent
How it was run: as §1

OVCAR-5 = assay: NCI one-dose screen; type: cell-based; conditions: Homo sapiens; OVCAR-5, 10 µM; read-out: Growth Percent
How it was run: as §1

EKVX = assay: NCI one-dose screen; type: cell-based; conditions: Homo sapiens, read-out: Growth Percent
How it was run: as §1

NCI/ADR-RES = assay: NCI one-dose screen; type: cell-based; conditions: Homo sapiens, read-out: Growth Percent
How it was run: as §1

SK-MEL-2 = assay: NCI one-dose screen; type: cell-based; conditions: Homo sapiens; SK-MEL-2, 10 µM; read-out: Growth Percent
How it was run: as §1

In the case of `O=C(/C=C/c1ccc(Br)cc1)c1ccc(-n2cc(CN3CCN(c4cc5c(cc4F)c(=O)c(C(=O)O)cn5C4CC4)CC3)nn2)cc1` [Compound 4d, (E)-7-(4-((1-(4-(3-(4-bromophenyl)acryloyl)phenyl)-1H-1,2,3-triazol-4-yl)methyl)piperazin-1-yl)-1-cyclopropyl-6-fluoro-4-oxo-1,4-dihydroquinoline-3-carboxylic acid], the activity at 10 µM (RPMI-8226) is reported as 6.02%, the activity at 10 µM (HCT-116) is reported as 17.3% and the IC50 (HT-29) is reported as 62.5 ± 7.1 µM. The IC50 (Caco-2) was 7.19 ± 1.69 µM, the IC50 (HCT116) was 8.67 ± 2.15 µM and the activity at 10 µM (SW-620) was 85.9%. It also gave an activity at 10 µM (MCF7) of 61.4%, an activity at 10 µM (SF-539) of 82.5% and an activity at 10 µM (HT29) of 99.2%. It also gave an activity at 10 µM (HOP-62) of 85.4%, an activity at 10 µM (MOLT-4) of 80.4% and an activity at 10 µM (A498) of 34.9%. The activity at 10 µM (OVCAR-8) was 80.7%, the activity at 10 µM (CAKI-1) was 68.7% and the activity at 10 µM (DU-145) was 92.3%. For the same compound, the activity at 10 µM (OVCAR-4) was 96.7%, the activity at 10 µM (SR) was 21.3% and the activity at 10 µM (ACHN) was 93.4%. The activity at 10 µM (OVCAR-3) was 84.9%, the activity at 10 µM (SN12C) was 58.8% and the activity at 10 µM (LOX IMVI) was 55.7%. For the same compound, the activity at 10 µM (SNB-75) was 85.7%, the activity at 10 µM (KM12) was 87.1% and the activity at 10 µM (TK-10) was 97.8%. The activity at 10 µM (HL-60(TB)) was 98.8%, the activity at 10 µM (SF-295) was 81.9% and the activity at 10 µM (UACC-257) was 90.1%. For the same compound, the activity at 10 µM (SK-OV-3) was 79%, the activity at 10 µM (HOP-92) was 88% and the activity at 10 µM (SK-MEL-5) was 79.7%. The activity at 10 µM (SNB-19) was 76.7%, the activity at 10 µM (RXF 393) was 55.7% and the activity at 10 µM (OVCAR-5) was 92.7%. The activity at 10 µM (EKVX) was 80.8%, the activity at 10 µM (NCI/ADR-RES) was 85.6% and the activity at 10 µM (SK-MEL-2) was 102%.
